# Data as given in US20040133938A1, “Use of lipoic acid in plant culture media” (priority 2002, published 2004).
# Columns and labels:
# [1] = tested on: immature embryos of wheat cv Bobwhite; assay: Wheat Agrobacterium transformation; type: cell-based, Triticum aestivum L; details: for Efficiency (%) / Responding calli (%): selection and first regeneration media
# Method: This example describes the use of lipoic acid in an Agrobacterium-based wheat transformation process. Immature embryos of wheat (Triticum aestivum L) cv Bobwhite were isolated from the immature caryopsis (wheat spikelets) 13-15 days after pollination, and cultured on M7 media (M7 medium is based on CM4C medium [Table 8], but the amount of MS salts was doubled and the picloram concentration was increased from 2.4 mg/L to 4 mg/L) containing 0.02 mM glyphosate for 3-4 days in the dark at 25° C. The embryos without embryogenic callus were selected for Agrobacterium inoculation. After preculture, 100 embryos were inoculated in 5 mL 1/10 CM4C medium with 5 mL Agrobacterium (OD660=1), 10 μL Pluronic F68 was added, and the mixture was incubated for 15 minutes in the dark at room temperature. Embryos were placed on sterilized filter paper with 200 μL deionized water and cocultured in the dark for 3 days at 23° C. Embryos were then transferred to delay media for 7 days in the dark at 25° C. Delay medium consists of CM4C, 500 mg/L carbenicillin, and 0.02 mM glyphosate. Selection was then performed on CM4C with 2 mM glyphosate, 500 mg/L carbenicillin and aromatic amino acids (10^−7/amino acid) for 7 days. Regeneration was started on MMSO.2C with 0.1 mM glyphosate, 250 mg/L carbenicillin, and aromatic amino acids ([…]) for 2 weeks in the light at 25° C. Regeneration was continued in MMSO.2C with 0.02 mM glyphosate, 500 mg/L carbenicillin, aromatic amino acids (10^−7/amino acid), and 2 μM copper sulfate for 2-8 weeks (with a transfer every 2 weeks) in the light at 25° C. Finally, plantlets were transferred to sundae cups with MMSO media with 0.02 mM glyphosate, and 500 mg/L carbenicillin.
# [2] = tested on: cotton hypocotyl explants; assay: Cotton transformation: embryogenic callus formation, lipoic acid in UMSEL media; type: cell-based; details: average from 3 experiments
# Method: Cotton seed was washed in 2 teaspoons of detergent in 700-800 mL of sterile water for 10 minutes. Seed was then soaked in fungicide solution (0.6 g benlate, 0.6 g captan per 100 mL sterile water) for 10 min, drained, but not rinsed. Seed was imbibed for 30 minutes in 800 mL of 50% Clorox with 3 drops of Tween-20 and then rinsed 3 times with sterile water. Seed was spread in a sterile phytatray containing 1/2 MS plus 1% glucose media at a density of approximately 20 seeds per tray. Seeds were germinated in the dark at 28° C. for 7-10 days.
# Agrobacterium was prepared by streaking a solid LBssck plate from frozen stock and incubating at 28° C. for 2 days. Two mL of liquid LBssck was inoculated with a single colony from the plate and grown overnight at 28° C. Culture is diluted 1:10 with fresh LBssck and cultured overnight at 28° C. The cells were spun down, the supernatant was poured off, cells were washed with MSO media and then resuspended in 20 mL of MSO.
# Explants were harvested by cutting off the cotyledons and then making a cut approximately 4 to 6 cm below the cotyledon. Hypocotyl sections were placed in MSO media and then cut into 0.5 to 1 cm pieces.
# Twenty mL of Agrobacterium broth was added to 100 to 500 cut explant sections and allowed to soak for 20 minutes. Explants were moved to co-culture medium (TrCO; see media descriptions below), covered with a plastic bag and co-cultured at room temperature for 2 days. After co-culture, explants were moved to UMSEL (1) media (with kanamycin or glyphosate selection), parafilmed and cultured in the light ( 16/8 photoperiod) at 28° C. for 4 weeks. Tissue was then transferred to fresh UMSEL (2) media containing selection in the same culture conditions for an additional 4 weeks.
# Independent calli that had formed were then moved to UMO(1) containing selection, parafilmed and cultured in the dark at 28° C. for 8 weeks. After 8 weeks, tissue was transferred to fresh UMO(2) containing selection, parafilmed, and cultured in the dark for an additional 8 weeks. Good embryogenic callus was moved to TRP embryo maturation media, parafilmed and cultured in the dark at 28° C. Embryogenic callus was subcultured to fresh TRP media every 4 weeks until somatic embryos formed and were moved to SHSU embryo germination media. Once on parafilmed SHSU plates, the shoots were placed in the light at 28° C. and subcultured every four weeks until roots began to form. When healthy roots and leaves were present, the shoots were moved to SHSU media in sundae cups and eventually to soil.
# [3] = Delay-selection-first regeneration 25-25-50 (μM), 599 explants
# [4] = Delay-selection-first regeneration 25-50-50 (μM), 560 explants
# [5] = Delay-selection-first regeneration 50-50-50 (μM), 570 explants
# [6] = 5 μM lipoic acid for 8 weeks in UMSEL media
# [7] = 10 μM lipoic acid for 8 weeks in UMSEL media
# [8] = 50 μM lipoic acid for 8 weeks in UMSEL media
# [9] = 100 μM lipoic acid for 8 weeks in UMSEL media
smiles,measurement,setting,value
"O=C(O)CCCCC1CCSS1 (stereo not drawn) [lipoic acid, 1,2-dithiolane-3-pentanoic acid]",Efficiency (%),"[1]; 5 μM in delay, 472 explants",3.8%
same,Responding calli (%),"[1]; 5 μM in delay, 472 explants",33.1%
same,Efficiency (%),"[1]; 10 μM in delay, 486 explants",3.2%
same,Responding calli (%),"[1]; 10 μM in delay, 486 explants",38.8%
same,Efficiency (%),"[1]; 30 μM in delay, 486 explants",3.0%
same,Responding calli (%),"[1]; 30 μM in delay, 486 explants",38.6%
same,Efficiency (%),"[1]; 50 μM in delay, 482 explants",5.1%
same,Responding calli (%),"[1]; 50 μM in delay, 482 explants",47.9%
same,Efficiency (%),"[1]; 100 μM in delay, 464 explants",2.2%
same,Responding calli (%),"[1]; 100 μM in delay, 464 explants",28.4%
same,% efficiency,[1]; [3],3.0%
same,% responding calli,[1]; [3],41.7%
same,% efficiency,[1]; [4],5.4%
same,% responding calli,[1]; [4],50.5%
same,% efficiency,[1]; [5],4.9%
same,% responding calli,[1]; [5],49.6%
same,Frequency (%) of embryogenic callus formation,[2]; [6],49.4%
same,Putative embryogenic calli,[2]; [6],132
same,Frequency (%) of embryogenic callus formation,[2]; [7],31.4%
same,Putative embryogenic calli,[2]; [7],88
same,Frequency (%) of embryogenic callus formation,[2]; [8],61.2%
same,Putative embryogenic calli,[2]; [8],120
same,Frequency (%) of embryogenic callus formation,[2]; [9],56.6%
same,Putative embryogenic calli,[2]; [9],107
